Data as given in patent US10183014B2, “Ocular formulations for drug-delivery and protection of the anterior segment of the eye” (PanOptica, Inc., priority 2014, dated 2019).

Legend:
[1] = Ocular pharmacokinetics of formulations, Example 20-5; format: in vivo, Dutch Belted rabbits; conditions: TRIS 0.60%, glycerol 2%, HEC 0.2%, HPMC 0.08%, Vitamin K3 1 μM, 1 hr post dose on Day 5
Method: The study design (Table 19-1) consisted of forty-seven (47) Dutch Belted rabbits, each receiving a 30 μL bilateral topical ocular dose. Various suspension formulations of the present application were evaluated and compared against a cyclodextrin-based eye drops solution (Control Group 1, Table 19-1). Formula II or Compound-I was used in the test suspensions as well as the Eye Drops solution.
Ocular sampling occurred one hour following the first daily dose on Day 5 for all groups. Whole blood samples using K2EDTA as an anticoagulant were collected from all animals on Day 5, 1 hour post dose. The whole blood was placed on ice until samples were spun in a centrifuge to separate the plasma. Aqueous humor, conjunctiva, cornea, central retina, peripheral retina, central choroid, and peripheral choroid samples were collected following necropsy. Samples were then frozen at −70° C. or lower. For all Groups 1-15, plasma, central retina, central choroid, and cornea samples were assayed. For Group 5 only, samples were analyzed for Vitamin K3.
An analytical method for the analysis of Vitamin K3 was determined in plasma, central retina, central choroid, and cornea samples from Group 5 animals. A calibration curve prepared in control vitreous humor was used to determine the concentration of Vitamin K3. Internal standard (IS) responses were inconsistent for the central choroid and plasma samples. Thus, positive plasma results were likely due to the reduced IS response.

EPHA-1 = EPHA-1 (Homo sapiens, UniProt P21709); assay: In vitro inhibition of tyrosine kinases; format: biochemical; conditions: read-out: Mean % Inhibition at 1 μM Compound-I; 1 μM (568.9 ng/mL)
SRC N1 = SRC N1 (Homo sapiens, UniProt P12931); assay: In vitro inhibition of tyrosine kinases; format: biochemical; conditions: read-out: Mean % Inhibition at 1 μM Compound-I; 1 μM (568.9 ng/mL)
[2] = Concentrations of Compound-I in ocular fluids and tissues, 0.4% cyclodextrin solutions, 24-day study; format: in vivo, Dutch-Belted rabbits; conditions: 0.4% cyclodextrin-based solutions, twice daily, day 24, 1 hour after first daily dose; for concentration at 1 h: Dutch-Belted, rabbit, topical, 0.4 % (4 mg/mL)
Method: The ocular solution of Compound-I comprising cyclodextrin was prepared and tested in different groups of animals.

Sequence of SRC N1 (P12931 1-542 isoform P12931-2): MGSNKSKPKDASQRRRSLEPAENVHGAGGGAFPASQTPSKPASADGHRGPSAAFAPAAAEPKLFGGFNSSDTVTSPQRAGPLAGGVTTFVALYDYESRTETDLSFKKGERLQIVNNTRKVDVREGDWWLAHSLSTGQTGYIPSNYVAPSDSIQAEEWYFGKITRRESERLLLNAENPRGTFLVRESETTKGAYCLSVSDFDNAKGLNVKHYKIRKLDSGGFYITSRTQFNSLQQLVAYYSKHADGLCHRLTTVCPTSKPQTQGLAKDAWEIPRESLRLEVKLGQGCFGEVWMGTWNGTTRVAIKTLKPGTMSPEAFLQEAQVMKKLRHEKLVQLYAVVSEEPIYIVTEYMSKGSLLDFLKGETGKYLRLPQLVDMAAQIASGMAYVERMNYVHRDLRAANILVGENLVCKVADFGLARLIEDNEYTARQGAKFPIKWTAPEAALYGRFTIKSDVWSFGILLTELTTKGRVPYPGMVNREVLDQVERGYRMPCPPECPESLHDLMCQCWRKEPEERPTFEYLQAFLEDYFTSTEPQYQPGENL
Sequence of EPHA-1 (P21709 26-976, species assumed): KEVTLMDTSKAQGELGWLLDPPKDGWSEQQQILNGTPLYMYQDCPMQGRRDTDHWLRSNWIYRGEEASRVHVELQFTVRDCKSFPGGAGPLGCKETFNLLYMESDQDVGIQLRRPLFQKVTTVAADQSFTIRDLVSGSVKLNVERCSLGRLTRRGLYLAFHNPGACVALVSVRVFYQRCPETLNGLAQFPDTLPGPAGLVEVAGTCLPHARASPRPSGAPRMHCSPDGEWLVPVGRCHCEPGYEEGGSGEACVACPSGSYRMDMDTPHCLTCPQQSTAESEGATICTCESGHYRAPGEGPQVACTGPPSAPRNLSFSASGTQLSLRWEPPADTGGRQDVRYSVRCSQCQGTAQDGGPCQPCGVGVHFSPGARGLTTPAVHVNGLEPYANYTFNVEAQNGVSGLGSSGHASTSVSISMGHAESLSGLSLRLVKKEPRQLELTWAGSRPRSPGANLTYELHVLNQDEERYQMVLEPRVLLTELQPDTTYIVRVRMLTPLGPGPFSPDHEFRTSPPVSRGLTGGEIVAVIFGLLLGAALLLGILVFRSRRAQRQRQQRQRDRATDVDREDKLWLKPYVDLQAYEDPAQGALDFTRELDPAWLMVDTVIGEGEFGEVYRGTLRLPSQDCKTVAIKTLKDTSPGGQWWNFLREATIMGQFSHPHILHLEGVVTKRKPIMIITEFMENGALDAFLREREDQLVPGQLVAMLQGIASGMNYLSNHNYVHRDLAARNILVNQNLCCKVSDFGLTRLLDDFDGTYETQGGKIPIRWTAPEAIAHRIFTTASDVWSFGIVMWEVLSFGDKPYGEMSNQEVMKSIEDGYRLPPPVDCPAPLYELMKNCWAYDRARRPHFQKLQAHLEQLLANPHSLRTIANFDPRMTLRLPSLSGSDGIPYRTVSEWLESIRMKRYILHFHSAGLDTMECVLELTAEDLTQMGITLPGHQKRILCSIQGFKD

SMILES: Cl.NC(=O)c1c(OCc2c(F)cc(Br)cc2F)nsc1NC(=O)NCCCCN1CCCC1 [Compound-I, 3-[(4-bromo-2,6-difluorophenyl)methoxy]-5-[[[[4-(1-pyrrolidinyl)butyl]amino]carbonyl]amino]-4-isothiazolecarboxamide hydrochloride]
- concentration at 1 h ([1]; Group 3: 4 mg/mL suspension, 3 μm particles, pH 6, QD for 4 days, read-out: Central Choroid concentration): 159 nM
- concentration at 1 h ([1]; Group 3: 4 mg/mL suspension, 3 μm particles, pH 6, QD for 4 days, read-out: Central Retina concentration): 92.8 nM
- concentration at 1 h ([1]; Group 3: 4 mg/mL suspension, 3 μm particles, pH 6, QD for 4 days, read-out: Cornea concentration): 10200 nM
- Plasma concentration ([1]; Group 4: 4 mg/mL suspension (Control), 50 μm particles (Native), pH 6, QD for 4 days): 5.98 nM
- concentration at 1 h ([1]; Group 4: 4 mg/mL suspension (Control), 50 μm particles (Native), pH 6, QD for 4 days, read-out: Central Choroid concentration): 128 nM
- concentration at 1 h ([1]; Group 4: 4 mg/mL suspension (Control), 50 μm particles (Native), pH 6, QD for 4 days, read-out: Central Retina concentration): 73.5 nM
- concentration at 1 h ([1]; Group 4: 4 mg/mL suspension (Control), 50 μm particles (Native), pH 6, QD for 4 days, read-out: Cornea concentration): 3930 nM
- Plasma concentration ([1]; Group 6: 4 mg/mL suspension, 50 μm particles, pH 6, BID for 4 days): 4.15 nM
- concentration at 1 h ([1]; Group 6: 4 mg/mL suspension, 50 μm particles, pH 6, BID for 4 days, read-out: Central Choroid concentration): 199 nM
- concentration at 1 h ([1]; Group 6: 4 mg/mL suspension, 50 μm particles, pH 6, BID for 4 days, read-out: Central Retina concentration): 44.1 nM
- concentration at 1 h ([1]; Group 6: 4 mg/mL suspension, 50 μm particles, pH 6, BID for 4 days, read-out: Cornea concentration): 6410 nM
- Plasma concentration ([1]; Group 8: 1 mg/mL suspension, 50 μm particles, pH 6, BID for 4 days): 2.11 nM
- concentration at 1 h ([1]; Group 8: 1 mg/mL suspension, 50 μm particles, pH 6, BID for 4 days, read-out: Central Choroid concentration): 70.8 nM
- concentration at 1 h ([1]; Group 8: 1 mg/mL suspension, 50 μm particles, pH 6, BID for 4 days, read-out: Central Retina concentration): 34.2 nM
- concentration at 1 h ([1]; Group 8: 1 mg/mL suspension, 50 μm particles, pH 6, BID for 4 days, read-out: Cornea concentration): 1720 nM
- Plasma concentration ([1]; Group 10: 2 mg/mL suspension, 50 μm particles, pH 6, BID for 4 days): 3.76 nM
- concentration at 1 h ([1]; Group 10: 2 mg/mL suspension, 50 μm particles, pH 6, BID for 4 days, read-out: Central Retina concentration): 50.7 nM
- Plasma concentration ([1]; Group 13 (different batch of Compound-I): 4 mg/mL suspension, 50 μm particles, pH 6, QD for 4 days): 7.09 nM
- concentration at 1 h ([1]; Group 13 (different batch of Compound-I): 4 mg/mL suspension, 50 μm particles, pH 6, QD for 4 days, read-out: Central Retina concentration): 76.6 nM
- concentration at 1 h ([1]; Group 13 (different batch of Compound-I): 4 mg/mL suspension, 50 μm particles, pH 6, QD for 4 days, read-out: Cornea concentration): 8550 nM
- Plasma concentration ([1]; Group 14 (different batch of Compound-I): 4 mg/mL suspension, 50 μm particles, pH 6, QD for 4 days): 2.68 nM
- concentration at 1 h ([1]; Group 14 (different batch of Compound-I): 4 mg/mL suspension, 50 μm particles, pH 6, QD for 4 days, read-out: Central Choroid concentration): 203 nM
- concentration at 1 h ([1]; Group 14 (different batch of Compound-I): 4 mg/mL suspension, 50 μm particles, pH 6, QD for 4 days, read-out: Central Retina concentration): 38.4 nM
- concentration at 1 h ([1]; Group 14 (different batch of Compound-I): 4 mg/mL suspension, 50 μm particles, pH 6, QD for 4 days, read-out: Cornea concentration): 3880 nM
- Plasma concentration ([1]; Group 15 (different batch of Compound-I): 4 mg/mL suspension, 50 μm particles, pH 6, QD for 4 days): 4.69 nM
- concentration at 1 h ([1]; Group 15 (different batch of Compound-I): 4 mg/mL suspension, 50 μm particles, pH 6, QD for 4 days, read-out: Central Choroid concentration): 196 nM
- concentration at 1 h ([1]; Group 15 (different batch of Compound-I): 4 mg/mL suspension, 50 μm particles, pH 6, QD for 4 days, read-out: Central Retina concentration): 63 nM
- concentration at 1 h ([1]; Group 15 (different batch of Compound-I): 4 mg/mL suspension, 50 μm particles, pH 6, QD for 4 days, read-out: Cornea concentration): 4230 nM
- inhibition at 1 µM (EPHA-1): 81%
- inhibition at 1 µM (SRC N1): 83%
- Corneal concentration, range over solutions [2]: 6.49 to 30 µM
- concentration at 1 h ([2]; aqueous humor, read-out: Aqueous humor concentration, range over solutions): 2 to 7 nM
- concentration at 1 h ([2]; central retina, read-out: Central retina concentration, range over solutions): 53.1 to 124 nM
